Earlier results in paper PMC8991498 (Food Chemistry: Molecular Sciences, 2021).

Tested on: Caco-2 cell monolayers

| Sequence | Absorption of β-casein fragment (ref Regazzo et al. (2010)) | Passage of RAP through Caco-2 cell monolayers (ref Xu et al. (2017)) |
| --- | --- | --- |
| YQEPVLGPVRGPFPIIV [β-casein fragment] | could be absorbed mainly by transcytosis |  |
| YWDHNNPQIR [RAP] |  | a percentage of this peptide managed to pass intact through the monolayer |
